Data: patent US20250312310A1, “Beta2-adrenergic receptor antagonists for use in treating diabetes or obesity” (NovelYeast bv, priority 2021, published 2025)
Entries after “also recorded” stand apart in the source; their conditions may differ. Read-outs that look alike come from different tables or passages of the source. Values belong to the compound of their own block, whether it stands above or below them. The star is where a group is joined. Myristoyl = CCCCCCCCCCCCCC(=O)*

Experiments:
[1] = tested on: everted sacs prepared from rat intestine; test: Glucose uptake into everted sacs of rat intestine; settings: for Effect on basal glucose transport: ICI 118,551 10 μM with 2.5 mM glucose; for Effect on basal glucose transport / Effect on epinephrine stimulation of glucose uptake: colchicine 5 μM; for Inhibition of the stimulation of glucose transport by mannose: LX4211 2 μM (also inhibits glucose transport itself); for Inhibition of the stimulation of glucose transport by mannose / Effect on epinephrine stimulation of glucose uptake: ICI 118,551 10 μM; for Effect on epinephrine stimulation of glucose uptake: epinephrine 10 μM, mPKI 1 μM
Protocol: Rats weighing around 150 g were fasted overnight before the experiment, and euthanized by cervical dislocation on the day of the experiment. The abdomen was opened by a midline incision, and a segment of around 35 cm of proximal intestine was isolated. The intestinal segment was rinsed with ice-cold Ringer solution (composition (mM): 140 NaCl, 5 KCl, 1 MgCl2, 2 CaCl2, 10 HEPES, 10 TRIS, gassed with 95% O2 and 5% CO2, pH 7.4), and 4-7 everted sacs were prepared, each approximately 3 cm in length, by tying off the ends of the intestinal segments with threads (46). The sacs were filled with Ringer solution containing 5 mM mannitol (Sigma Aldrich) (to maintain osmotic balance) and L-glutamine (2 mM) (Sigma Aldrich) (as an energy source). Each everted sac was transferred to a separate glass beaker containing 50 mL continuously oxygenated Ringer solution with L-glutamine (2 mM), and maintained in a water bath at 37° C. Then, epinephrine 10 μM (Sigma Aldrich), mannose 5 mM (Sigma Aldrich), ICI 118,551 10 μM (Sigma Aldrich), phlorizin 100 μM (Sigma Aldrich), LX4211 2 μM (MedKoo Biosciences, Inc. USA.) or Ringer solution were added to the respective beaker for a 15-min pre-incubation (concentrations indicate final concentrations of the compounds). For the sacs treated with ICI 118,551, phlorizin or LX 4211, the inhibitors were added before mannose or epinephrine. After pre-incubation, 5 mM glucose, or 2.5 mM glucose for the ICI 118,551 control experiment, was added to the external buffer to initiate glucose transport. […] These samples were analyzed using a glucose assay kit based on glucose oxidase (Sigma Aldrich, for details, see below). […] Also for colchicine, a TRIS-free Ringer solution was used, as TRIS interferes with colchicine activity (130). […] We noticed that it was important to take certain precautions during these experiments: the intestine was never allowed to overfill and be stretched while rinsing the intestinal lumen at the time of isolation and filling the everted sac with Ringer solution. Trapping air bubbles inside the everted sac was avoided. Also, the regions of the intestine where mucus was still present were not used for preparing everted sacs. […] The glucose concentration of the samples was assayed by a glucose assay kit (Sigma Aldrich, GOD/POD method). The assay procedure recommended by the kit was modified for small sample volumes as follows. Fifty μL of sample was transferred to a well of a 96-well plate, and at time zero, the reaction was started by adding 100 μL of assay reagent to the first well, and mixing. Each well was allowed to react for exactly 30 min at 37° C. The reaction was stopped by adding 100 μL of 12 N H2SO4 (Merck) into each well, and carefully mixing. The absorbance was measured at 540 nm with a plate reader (Tecan 200).

[2] = target: T1, human β2-AR (Homo sapiens, UniProt P07550); test: Competitive radioligand binding assay with 125I-cyanopindolol on membrane vesicles; design: purchased PerkinElmer RBHBE2M; settings: maximal increase with increasing concentrations
[3] = target: T1, human β2-AR; test: Calcium response (Fluo-4) in Flp-In-293 cells stably transfected with ADRB2 and GNA15; type: cell-based; settings: for Activation of the β2-AR by sugars (calcium response): sugars at 50 mM, listed in order of decreasing intensity
[4] = Caco-2 permeability assay; type: in vitro ADME, human; settings: human; for Papp A→B / Papp B→A: Caco-2, pH 7.4; for Papp at 1 μM: summary, read-out: Permeability in Caco2 assay; for recovery at 1 μM: Caco-2, pH 7.4, Caco-2, 1.0 μM
Source text: (§1) Caco-2 cell permeability data of compound CD3-403 (apical to basal (A-B) and basal to apical (B-A), measured at pH 7.4 in both apical and basal compartment)

[5] = tested on: Caco-2 cells; test: Caco-2 permeability assay; type: in vitro ADME, human
Source text: as §1

[6] = In vivo oral glucose tolerance test; design: species or system rat; settings: rats
Protocol: Animals and diet. All the experiments were approved by the ethical committee on animal experimentation of the KU Leuven. Wistar rats (Harlan Netherlands B.V.) were maintained on a 12 h light-12 h dark cycle, and fed with standard rat food chow and water ad libitum. The oral glucose tolerance test was performed on normal rats weighing around 250 g, which were fasted for 16 h before the test. Blood was sampled by tail vein puncture, and the blood glucose level was measured by glucometer (Verio OneTouch glucometer). Rats were divided in four groups: one with glucose 2 g/kg or glucose 4 g/kg (Sigma Aldrich), both in the presence or absence of CD3-403. […] Glucose or glucose along with CD3-403, dissolved in 0.9% saline, was administered to rats by oral gavage in the respective groups. […] All experiments were conducted around the same time in the morning.

[7] = target: T1, human β2-AR; settings: Xenopus oocytes, CFTR readout
[8] = tested on: HEK-293 cells (endogenous β2-AR); settings: 1 μM epinephrine
[9] = Rattus norvegicus, 1.25 h, phlorizin 100 μM, LX4211 2 μM, glucose accumulated after 75 min
[10] = concentration response curve, 1st experiment, read-out: IC50 (nM) 1st experiment
[11] = concentration response curve, 2nd experiment, read-out: IC50 (nM) 2nd experiment
[12] = summary of screening, read-out: IC50
[13] = Caco-2, test concentration 1.0E−06 M
[14] = second CD3 compounds overview table, epinephrine 5 nM, read-out: IC50
[15] = Caco-2, 1.0 μM, pH 7.4 in both compartments

- Activation of the β2-AR by sugars (calcium response) [3]: activated
Compound: O=C(CO)[C@@H](O)[C@H](O)[C@H](O)CO [fructose]

- IC50 [3, 10]: 6 nM
- IC50 [3, 11]: 0.6 nM
- IC50 [3, 12]: 6 nM
- Papp A→B ([4]; test concentration 1.0E−06 M): 54.7 ×10⁻⁶ cm/s
- Papp B→A ([4]; test concentration 1.0E−06 M): 17.8 ×10⁻⁶ cm/s
- Papp at 1 μM ([4]; Caco-2): 54.7 ×10⁻⁶ cm/s
- efflux ratio at 1 µM [4, 13]: 0.325
- MeanRecovery (A-B) ([5]; test concentration 1.0E−06 M): 71%
- MeanRecovery (B-A) ([5]; test concentration 1.0E−06 M): 87%
Compound: Cc1c[nH]c2cccc(OC[C@H](O)CNC(C)(C)C)c12 [CD3-T1]

- Activation of the β2-AR by sugars (calcium response) [3]: very little effect
Compound: N[C@H]1C(O)O[C@H](CO)[C@@H](O)[C@@H]1O (stereo partly drawn) [Glucosamine]

- IC50 [3, 10]: 66 nM
- IC50 [3, 11]: 78 nM
- IC50 [3, 12]: 78 nM
- Papp A→B ([4]; test concentration 1.0E−06 M): 0.1 ×10⁻⁶ cm/s
- Papp B→A ([4]; test concentration 1.0E−06 M): 3.2 ×10⁻⁶ cm/s
- Papp at 1 μM ([4]; Caco-2): 0.1 ×10⁻⁶ cm/s
- efflux ratio at 1 µM [4, 13]: 32
- MeanRecovery (A-B) ([5]; test concentration 1.0E−06 M): 76%
- MeanRecovery (B-A) ([5]; test concentration 1.0E−06 M): 90%
Compound: CC(C)NC[C@@H](O)COc1cccc2[nH]cc(CC(=O)N(C)C)c12 [CD3-T3]

- EC50 ([3]; calcium response (FIG. 2d)): ~10000 µM
- Activation of the β2-AR by sugars (calcium response) [3]: activated
Compound: maltotriose

- Activation of the β2-AR by sugars (calcium response) [3]: activated
Compound: OC[C@H]1O[C@H](O[C@H]2[C@H](O)[C@@H](O)C(O)O[C@@H]2CO)[C@H](O)[C@@H](O)[C@@H]1O (mixture of isomers) [maltose]

- Inhibition of the epinephrine response ([3]; 200 μM antagonist, 20 nM epinephrine): Inhibition
- Inhibition of sugar responses ([3]; 200 μM antagonist, 70 mM sugar): inhibited; also recorded: Inhibition
- Block of the calcium response to epinephrine ([3]; Flp-In-293 β2-AR/Gα16 cells, Fluo4 fluorescence (FIG. 2a)): blocked
Compound: CC(C)(C)NCC(O)COc1cccc2c1CC(O)C(O)C2 (stereo not drawn) [nadolol, reference compound]

- Activation of the β2-AR by sugars (calcium response) [3]: activated
Compound: O=C[C@H](O)[C@@H](O)[C@H](O)CO [xylose]

- Activation of the β2-AR by sugars (calcium response) [3]: activated
Compound: OC[C@H]1O[C@H](O[C@H]2O[C@H](CO)[C@@H](O)[C@H](O)[C@H]2O)[C@H](O)[C@@H](O)[C@@H]1O [trehalose]

Further lines, the compound ahead of its results:

Compound: Cc1ccc(OCC(O)C(C)NC(C)C)c2c1CCC2 (stereo not drawn) [ICI 118,551]
- Effect on basal glucose transport [1]: did not have any effect
- Inhibition of the stimulation of glucose transport by mannose [1]: abolished
- Effect on epinephrine stimulation of glucose uptake ([1]; phlorizin 100 μM): completely prevented

Compound: [Cl-].[Na+] [NaCl]
- Increase of 125I-cyanopindolol binding [2]: roughly 35%

Compound: CCOc1ccc(Cc2cc([C@@H]3O[C@H](SC)[C@@H](O)[C@H](O)[C@H]3O)ccc2Cl)cc1 [LX4211]
- Inhibition of the stimulation of glucose transport by mannose [1]: completely inhibited
- inhibition at 2 µM [1, 9]: > 90%

Compound: O=CC[C@@H](O)[C@H](O)[C@H](O)CO [2 deoxy-D-glucose]
- Activation of the β2-AR by sugars (calcium response) [3]: activated

Compound: COc1ccc(OC)c(C(O)C(C)NC(C)(C)C)c1 (stereo not drawn) [Butoxamine, reference compound]
- IC50 [3, 14]: 14300 nM

Compound: Myristoylated PKI 14-22 amide (Myristoyl-GRTGRRNAI-NH2; SMILES CCCCCCCCCCCCCC(=O)NCC(=O)N[C@@H](CCCNC(=N)N)C(=O)N[C@H](C(=O)NCC(=O)N[C@@H](CCCNC(=N)N)C(=O)N[C@@H](CCCNC(=N)N)C(=O)N[C@@H](CC(N)=O)C(=O)N[C@@H](C)C(=O)N[C@H](C(N)=O)[C@@H](C)CC)[C@@H](C)O; UniProt P61925 15-23, looked up, fragment)
- Effect on epinephrine stimulation of glucose uptake ([1]; phlorizin 100 μM): partially inhibited

Compound: O=C(CCc1ccc(O)cc1)c1c(O)cc(O)cc1O[C@@H]1O[C@H](CO)[C@@H](O)[C@H](O)[C@H]1O [phlorizin]
- inhibition at 100 µM [1, 9]: > 90%
- Effect on epinephrine stimulation of glucose uptake ([1]; phlorizin 100 μM): inhibited both basal and enhanced glucose uptake

Compound: CC(C)(C)NC[C@@H](O)COc1cccc2[nH]cc(CC(N)=O)c12 [CD3-403]
- IC50 ([3]; 5 nM epinephrine, read-out: IC50 of the calcium response elicited by 5 nM epinephrine): 46 nM
- IC50 [3, 10]: 221 nM
- IC50 [3, 11]: 46 nM
- IC50 ([3]; concentration response curve, old stock, read-out: IC50 (nM) old stock): 40 nM
- % INHIBITION ([3]; second CD3 compounds overview table, epinephrine 5 nM): 97%
- IC50 [3, 14]: 40 nM
- IC50 [3, 12]: 46 nM
- Area under the curve (AUC) of the glucose increase ([6]; glucose 2 g/kg, 100% as baseline, mean±SD, control 8056±2990): 5907±2195
- Increase in blood glucose level after oral glucose bolus ([6]; oral gavage, glucose 2 g/kg, 5 μM (0.05 mg/kg) CD3-403): reduced increase in blood glucose level, which was significant at 60 min
- Blood glucose concentration after oral glucose bolus ([6]; oral gavage, glucose 4 g/kg, 5 μM (0.05 mg/kg) CD3-403): trend of decreased glucose concentration
- recovery at 1 μM ([4]; pH 7.4 in both compartments, read-out: Mean Recovery (A-B)): 83%
- recovery at 1 μM ([4]; pH 7.4 in both compartments, read-out: Mean Recovery (B-A)): 94%
- Papp A→B ([4]; test concentration 1.0E−06 M): 0.4 ×10⁻⁶ cm/s
- Papp B→A ([4]; test concentration 1.0E−06 M): 1.3 ×10⁻⁶ cm/s
- Papp at 1 μM ([4]; Caco-2): 0.4 ×10⁻⁶ cm/s
- efflux ratio at 1 µM ([4]; Caco-2, 1.0 μM, B-A/A-B): 3.25
- Papp A→B at 1 μM [4, 15]: 0.4 ×10⁻⁶ cm/s
- Papp B→A at 1 μM [4, 15]: 1.3 ×10⁻⁶ cm/s
- Cell permeability ([5]; assessed by a Caco-2 permeability assay): very low cell permeability
- Efflux ([5]; test concentration 1.0E−06 M): 3.25
- MeanRecovery (A-B) ([5]; test concentration 1.0E−06 M): 83%
- MeanRecovery (B-A) ([5]; test concentration 1.0E−06 M): 94%

Compound: CC(C)(C)NCC(O)COc1cccc2[nH]cc(CC(=O)NN)c12 (racemic) [CD3 X]
- IC50 [3, 12]: 70 nM
- Permeability class in Caco2 assay ([5]; summary): low permeability

Compound: COc1cc2c(c(OC)c1OC)-c1ccc(OC)c(=O)cc1[C@@H](NC(C)=O)CC2 [Colchicine]
- Effect on basal glucose transport [1]: not basal glucose uptake
- Effect on epinephrine stimulation of glucose uptake ([1]; phlorizin 100 μM): completely blocked

Compound: CNC[C@H](O)c1ccc(O)c(O)c1 [epinephrine]
- Glucose accumulated after 10 min in the sac ([1]; epinephrine 10 μM in external medium, 5 mM glucose, without epinephrine 440±132): 833 ± 255 µM
- Activation of the β2-AR (inward current and conductance) [7]: activated
- Calcium response in non-transfected HEK-293 cells [8]: failed to show a calcium response
- Calcium response in non-transfected HEK-293 cells ([8]; listed as Epinephrine): did not elicit a calcium response
